{"source": "patent US11642391B2", "about": "“Compositions containing a pharmacophore with selectivity to diseased tissue and methods of making same” (Vascular BioSciences, priority 2014, dated 2023)", "key": {"[1]": {"system": "LPS-induced sepsis", "test": "Survival in LPS mouse model of sepsis", "format": "in vivo, mice", "experimental": "Fifty-percent of all mice with LPS-induced sepsis that are left untreated are dead within 48 hours. When these LPS mice are treated with clinically relevant doses of the common and experimental sepsis drugs hydrocortisone, antithrombin III or sivelestat, survival ranged from 40-56%, similar to current clinical outcomes. In contrast, when LPS mice were co-administered CAR at the same time as hydrocortisone, antithrombin III or sivelestat, experimental sepsis survival improved to 83-89%.\nInjection of the bacterial protein, lipopolysaccharide (LPS), was used to induce sepsis in mice. Doses were given at 3, 6, 9, and 12 hours to match the clinical use of sivelestat. Survival was measured up to 48 hours after LPS injection. At 48 hours, the survival rate of CAR pharmacophore+sivelestat treated animals was 89% compared to 50% in both control and sivelestat only groups, representing a 78% increase in survival of animals treated with CAR pharmacophore (FIG. 12).\nSepsis was initiated and survival measured with doses given at 3 and 24 hours to match the clinical use of ATIII. […]\nCAR pharmacophore dramatically improves survival in septic mice treated with hydrocortisone steroid. Sepsis was initiated and survival measured with doses given at 3 and 24 hours to match the clinical use of hydrocortisone. […]"}, "[2]": {"system": "sepsis", "conditions": "cited from earlier work"}, "[3]": {"system": "monocrotaline-induced PAH", "test": "Monocrotaline-induced (MCT) PAH rat model, co-administration with imatinib", "format": "in vivo, Sprague-Dawley rats", "conditions": "prolonged intravenous administration of imatinib alone", "experimental": "CAR pharmacophore co-administration with imatinib in a rat model of monocrotaline-induced (MCT) PAH was used to observe the therapeutic utility of CAR for targeting PAH. CAR pharmacophore peptide was intravenously co-administered with 10 mg/kg or 50 mg/kg imatinib for 14 days starting 4 weeks post MCT induction.\nPAH was induced in male Sprague-Dawley rats (300-330 g, 10 weeks old, Harlan) with a single intraperitoneal dose of monocrotaline (60 mg/kg). Treatment was initiated four weeks after PAH induction with either imatinib (50 mg/kg or 10 mg/kg) or imatinib (50 mg/kg or 10 mg/kg)+CAR pharmacophore combination (3 mg/kg) for 2 weeks with daily i.v. (FIGS. 22 and 23) or daily sublingual administration."}, "[4]": {"system": "MDA-MB-231 cells", "test": "Triple negative breast cancer model in athymic nude mice", "format": "in vivo", "conditions": "after 32 days; 3 mg/kg i.v. every other day, 15 doses", "procedure": "In female athymic nude mice (CRL: NU(NCr)—Foxn1nu, 11 weeks old, Charles River), triple negative breast cancer tumors were initiated via subcutaneous injection of 5×10^6 MDA-MB-231 cells into the right flank. Tumor growth was monitored until the average tumor size approached 100-150 mm3. […] Animals were dosed intravenously every other day for a total of 15 doses. Tumor volume was measured using calipers twice per week and animals weighed daily on days 1-5 and then on a twice weekly schedule."}, "[5]": {"system": "lung, liver and kidney endothelium of septic animals", "test": "Scanning electron micrograph of lung, liver and kidney tissue in LPS sepsis", "format": "in vivo, mice"}, "[6]": {"system": "CHO cells", "conditions": "prior experiments; linear truncated peptides; cited from earlier work"}, "[7]": {"system": "diseased kidney (anti-glomerular basement membrane antibody induced glomerular injury)", "test": "CAR pharmacophore targeting in rat model of crescentic glomerular nephritis", "format": "in vivo", "conditions": "i.v. 3.3 mg/kg B.W., 14 days after induction, kidneys harvested three hours after injection", "experimental": "A rat model of crescentic glomerular nephritis (anti-glomerular basement membrane antibody induced glomerular injury) was used to observe the utility of CAR pharmacophore targeting in chronic kidney disease. Glomerulonephritis was induced in rat kidneys by i.v. injection of anti-glomerular basement membrane antibodies. 14 days after induction, CAR pharmacophore peptide or control ([…] SEQ ID NO: 34) peptide was i.v. injected at 3.3 mg/kg B.W. Kidneys were harvested three hours after CAR pharmacophore or control injection and Masson's trichrome (collagen) staining and fibronectin immunostaining were used to determine development of kidney disease and fibrosis formation."}, "[8]": {"conditions": "meta-analysis of 8 trials (Iwata et al., 2010)"}}}
{"molecule": "C[C@]12CCC(=O)C=C1CC[C@@H]1[C@@H]2[C@@H](O)C[C@@]2(C)[C@H]1CC[C@]2(O)C(=O)CO", "note": "[hydrocortisone]", "values": [{"measurement": "survival rate", "setting": "[1]; 48 hours, hydrocortisone only, doses at 3 and 24 hours", "result": 56, "unit": "%"}, {"measurement": "super infection", "setting": "[2]; low-dose hydrocortisone therapy, septic shock", "result": "more episodes of super infection"}, {"measurement": "survival in patients with septic shock", "setting": "[2]; low-dose hydrocortisone therapy", "result": "did not improve survival"}]}
{"molecule": "Cc1ccc(NC(=O)c2ccc(CN3CCN(C)CC3)cc2)cc1Nc1nccc(-c2cccnc2)n1", "note": "[imatinib]", "values": [{"measurement": "effect on bodyweight", "setting": "[3]", "result": "significant adverse effect on bodyweight"}]}
{"molecule": "CC(=O)O[C@H]1C(=O)[C@@]2(C)[C@H]([C@H](OC(=O)c3ccccc3)[C@]3(O)C[C@H](OC(=O)[C@H](O)[C@@H](NC(=O)c4ccccc4)c4ccccc4)C(C)=C1C3(C)C)[C@]1(OC(C)=O)CO[C@@H]1C[C@@H]2O", "note": "[paclitaxel]", "values": [{"measurement": "bodyweight gain relative to average starting bodyweight", "setting": "[4]", "result": 5, "unit": "%"}]}
{"molecule": "CC(C)(C)C(=O)Oc1ccc(S(=O)(=O)Nc2ccccc2C(=O)NCC(=O)O)cc1", "note": "[sivelestat]", "values": [{"measurement": "pulmonary arteriole endothelium degradation (SEM, lung)", "setting": "[5]", "result": "did not prevent degradation of the continuous pulmonary arteriole endothelium"}, {"measurement": "sieve plates (SEM, liver)", "setting": "[5]", "result": "not able to prevent defenestration of sieve plates"}, {"measurement": "tissue damage (SEM, kidney)", "setting": "[5]", "result": "did not prevent gross tissue damage"}, {"measurement": "survival rate", "setting": "[1]; 48 hours after LPS injection, doses at 3, 6, 9, and 12 hours", "result": 50, "unit": "%"}, {"measurement": "180 day mortality", "setting": "[2]; [8]", "result": "possibly increased"}, {"measurement": "mechanical ventilation days", "setting": "[2]; [8]", "result": "no difference"}, {"measurement": "mortality rate within 28-30 days after randomization", "setting": "[2]; [8]", "result": "no difference"}]}
{"molecule": "CARSKNK [SEQ ID NO: 24]", "values": [{"measurement": "cell binding and tissue homing", "setting": "[6]", "result": "highly active"}]}
{"molecule": "CGGGGGGGC [control peptide]", "values": [{"measurement": "accumulation in the diseased kidney", "setting": "[7]", "result": "largely cleared from the kidney"}]}
